Experimental data: paper PMC9503778, “Targeted Isolation of Antibiotic Brominated Alkaloids from the Marine Sponge Pseudoceratina durissima Using Virtual Screening and Molecular Networking” (Marine Drugs, 2022)
≈ marks a conversion by molar mass, not a printed value. Where “and” joins values, the source holds several entries; their conditions need not be identical. Equal values may be shown once. Read-outs that look alike come from different tables or passages of the source.

Columns and labels:
[1] = system: C. albicans (yeast) ATCC 90028; experiment: Antimicrobial growth inhibition (CO-ADD), C. albicans; format: cell-based, Candida albicans; conditions: Candida albicans, ATCC90028; ATCC 90028; read-out: MIC C. albicans
Protocol: (§1) Compounds 1−3 and 5−12 were assayed against a selection of medically important pathogenic microorganisms (MRSA, E. coli, K. pneumoniae, A. baumanii, P. aeruginosa, C. albicans, C. neoformans), Table 4. […] To the best of our knowledge this compound had not been tested against any drug resistant strain of Gram-positive bacterium until this study.
(§2) The antimicrobial activity testing was performed by the Community for Antimicrobial Drug Discovery (CO-ADD). Compounds were assayed against a range of both Gram negative and Gram positive bacteria (see Supplementary Materials S3) including methicillin-resistant Staphylococcus aureus (MRSA) (G+), Escherichia coli (G-), Klebsiella pneumoniae (G-), Acinetobacter baumannii (G-), Pseudomonas aeruginosa (G-) together with two species of fungus (Candida albicans and Cryptococcus neoformans).
(§3) S3. Antimicrobial activity testing methodology
(§4) The compounds submitted to CO-ADD were evaluated in duplicate (n = 2) against seven microorganisms (five bacteria and two fungi) at a concentration of 32 µg/mL in a 384-well, non-binding surface plate (NBS) for each bacterial/fungal strain, keeping the final DMSO concentration to a maximum of 1% DMSO. All bacteria were cultured in cation-adjusted […]
(§5) Fungal strains were cultured for 3 days on Yeast Extract-Peptone Dextrose (YPD) agar at 30 °C. A yeast suspension of 1 x 10^6 to 5 x 10^6 CFU/mL (as determined by OD530) was prepared from five colonies. The suspension was subsequently diluted and added to each well of the compound-containing plates giving a final cell density of fungi suspension of 2.5 x 10^3 CFU/mL and a total volume of 50 µL. All plates were covered and incubated at 35 °C for 24 h without shaking. […]
(§6) 2 h. The absorbance was measured using a Biotek Synergy HTX plate reader. The percentage of growth inhibition was calculated for each well, using negative control (medium only) and positive control (bacteria without inhibitors) on the same plate as the references. The significance of inhibition values was determined by modified Z-scores, calculated using the median and MAD of the samples (no controls) on the same plate. Samples with inhibition value above 80% and Z-score above 2.5 for either replicate (n = 2 on different plates) were classed as actives.
(§7) Colistin and vancomycin were used as positive bacterial inhibitor standards for Gram-negative and Gram-positive bac-teria, respectively. Fluconazole was used as a positive fungal inhibitor standard for C. albicans and C. neoformans. The antibiotics were provided in four concentrations, with two above and two below its MIC value, and plated into the first eight wells of column 23 of the 384-well NBS plates. The quality control (QC) of the assays was determined by the antimicrobial controls and the Z’-factor (using positive and negative controls). Each plate was deemed to fulfil the qual- […]
(§8) full growth inhibition at their highest concentration, and no growth inhibition at their lowest concentration. The seven […]
(§9) test microorganisms were Staphylococcus aureus MRSA (ATCC 43300), Escherichia coli (ATCC 25922), Klebsiella pneu-moniae (ATCC 700603), Acinetobacter baumanii (ATCC19606), Pseudomonas aeruginosa (ATCC 27853), Candida albicans (ATCC 90028) and Cryptococcus neoformans var. grubii (H99; ATCC 208821).
(§10) S4. Anthelmintic activity testing methodology
(§11) Dose-response evaluations were carried out to estimate the half-maximal inhibitory concentrations (IC50 values) for compounds against Haemonchus contortus (Haecon-5 strain) exsheathed third-stage larvae (xL3s). H. contortus were maintained in experimental sheep and procured in accordance with the institutional animal ethics guidelines and the regulations of Australia (permit no. 1714374; University of Melbourne). Immediately prior to use, third-stage larvae (L3s) were exsheathed and sterilised by incubation in 0.15% (v/v) bleach at 38 °C for 20 min, followed by washes in sterile saline at room temperature (22-24 °C). […]

[2] = system: C. neoformans var. grubii strain ATCC 208821; experiment: Antimicrobial growth inhibition (CO-ADD), C. neoformans; format: cell-based; conditions: Cryptococcus neoformans, ATCC208821; var. grubii ATCC 208821; read-out: MIC C. neoformans
[3] = system: E. Coli (G-) strain ATCC 25922; experiment: Antimicrobial growth inhibition (CO-ADD), E. coli; format: cell-based, Escherichia coli; conditions: for % inhibition E. coli: 32 µg/mL; for % inhibition E. coli / inhibition at 32 µg/mL: duplicate (n = 2) values; for inhibition at 32 µg/mL / MIC: Escherichia coli; for inhibition at 32 µg/mL: ATCC25922, 32 µg/mL, read-out: % inhibition E. coli; for MIC: ATCC25922, read-out: MIC E. coli
Protocol: as §1, §2, §3
(§12) The compounds submitted to CO-ADD were evaluated in duplicate (n = 2) against seven microorganisms (five bacteria and two fungi) at a concentration of 32 µg/mL in a 384-well, non-binding surface plate (NBS) for each bacterial/fungal strain, keeping the final DMSO concentration to a maximum of 1% DMSO. All bacteria were cultured in cation-adjusted Mueller-Hinton broth (CAMHB) at 37 °C overnight. A sample of each culture was then diluted 40-fold in fresh broth and incubated at 37 °C for 1.5-3 h. The resultant mid-log phase cultures were diluted (CFU/mL measured by OD600), then added to each well of the compound containing plates, giving a cell density of 5x10^5 CFU/mL and a total volume of 50 µL. All the plates were covered and incubated at 37 °C for 18 h without shaking. […] Inhibition of bacterial growth was determined measuring absorbance at 600 nm (OD600) using a Tecan M1000 Pro mon-ochromator plate reader. […]
as §6, §7, §8, §9, §10
as §11, with “in” for “in sterile saline at room temperature (22-24 °C).”

[4] = system: K. pneumoniae (G-) strain ATCC 700603; experiment: Antimicrobial growth inhibition (CO-ADD), K. pneumoniae; format: cell-based, Klebsiella pneumoniae; conditions: for % inhibition K. pneumoniae: 32 µg/mL; for % inhibition K. pneumoniae / inhibition at 32 µg/mL: duplicate (n = 2) values; for inhibition at 32 µg/mL / MIC: Klebsiella pneumoniae; for inhibition at 32 µg/mL: ATCC700603, 32 µg/mL, read-out: % inhibition K. pneumoniae; for MIC: ATCC700603, read-out: MIC K. pneumoniae
Protocol: as §1, §2, §3, §12, §6, §7, §8, §9, §10
as §11, with “in” for “in sterile saline at room temperature (22-24 °C).”

[5] = system: A. baumannii (G-) strain ATCC 19606; experiment: Antimicrobial growth inhibition (CO-ADD), A. baumannii; format: cell-based, Acinetobacter baumannii; conditions: for MIC: Acinetobacter baumannii, ATCC19606, read-out: MIC A. baumannii
Protocol: as §1, §2, §3, §12, §6, §7, §8, §9, §10
as §11, with “in” for “in sterile saline at room temperature (22-24 °C).”

[6] = system: P. auruginosa (G-) strain ATCC 27853; experiment: Antimicrobial growth inhibition (CO-ADD), P. aeruginosa; format: cell-based, Pseudomonas aeruginosa; conditions: ATCC 27853; for MIC: Pseudomonas aeruginosa, ATCC27853, read-out: MIC P. aeruginosa
Protocol: as §1, §2, §3, §12, §6, §7, §8, §9, §10
as §11, with “in” for “in sterile saline at room temperature (22-24 °C).”

[7] = system: zebrafish larvae at 5 dpf; design: method as in PMID 35200664; conditions: cited from earlier work
[8] = system: MRSA (G+) strain ATCC 43300; experiment: Antimicrobial growth inhibition (CO-ADD), MRSA; format: cell-based, Staphylococcus aureus; conditions: for MIC: Staphylococcus aureus, read-out: MIC MRSA
Protocol: as §1, §2, §3, §12, §6, §7, §8, §9, §10
as §11, with “in” for “in sterile saline at room temperature (22-24 °C).”

[9] = Cytotoxicity assay (CO-ADD); format: cell-based; conditions: human, human embryonic kidney cells
human red blood cells = experiment: Haemolysis assay (CO-ADD); format: cell-based
[10] = system: C. neoformans var. grubii strain ATCC 208821; experiment: Antimicrobial growth inhibition (CO-ADD), C. neoformans; format: cell-based, Cryptococcus neoformans; conditions: duplicate (n = 2) values
Protocol: as §1, §2, §3, §4, §5
as §6, with “Growth inhibition of C. albicans was determined measuring absorbance at 530 nm (OD530), while the growth inhibition of C. neoformans was determined measuring the difference in absorbance between 600 and 570 nm (OD600-570), after the addition of resazurin (0.001% final concentration) and incubation at 35 °C for an additional 2 h.” for “2 h.”
as §7, §8, §9, §10
Dose-response evaluations were carried out to estimate the half-maximal inhibitory concentrations (IC50 values) for compounds against Haemonchus contortus (Haecon-5 strain) exsheathed third-stage larvae (xL3s). H. contortus were maintained in experimental sheep and procured in accordance with the institutional animal ethics guidelines and the […]

[11] = system: Mediterranean fish species Blennius sphinx; design: method as in PMID 15018063; conditions: cited from earlier work
[12] = ATCC 25922, MIC = concentration at which growth inhibited by ≥80%
[13] = ATCC 43300, MIC = concentration at which growth inhibited by ≥80%, range 0.25−32 µg/mL
[14] = 32 µg/mL, duplicate (n = 2) values

OC(Cn1cncn1)(Cn1cncn1)c1ccc(F)cc1F [Fluconazole, reference compound]
MIC [1]: 0.125 µg/mL | MIC [2]: 8 µg/mL (≈ 26.1 µM)

Colistin [reference compound]
MIC E. coli [3, 12]: Colistin: 0.125 µg/mL | MIC K. pneumoniae ([4]; ATCC 700603): Colistin: 0.25 µg/mL | MIC A. baumannii ([5]; ATCC 19606): Colistin: 0.25 µg/mL | MIC P. aeruginosa [6]: Colistin: 0.25 µg/mL

COC1=C(Br)[C@@H](O)[C@]2(C=C1Br)CC(C(=O)NCCc1cnc[nH]1)=NO2 [aerophobin-1]
concentration giving significant larval mortality [7]: > 1000 nM

CN[C@H](CC(C)C)C(=O)N[C@H]1C(=O)N[C@@H](CC(N)=O)C(=O)N[C@H]2C(=O)N[C@H]3C(=O)N[C@H](C(=O)N[C@H](C(=O)O)c4cc(O)cc(O)c4-c4cc3ccc4O)[C@H](O)c3ccc(c(Cl)c3)Oc3cc2cc(c3O[C@@H]2O[C@H](CO)[C@@H](O)[C@H](O)[C@H]2O[C@H]2C[C@](C)(N)[C@H](O)[C@H](C)O2)Oc2ccc(cc2Cl)[C@H]1O [Vancomycin, reference compound]
MIC [8]: 1 µg/mL

COC1(OC)C(Br)=CC(O)(CC#N)C=C1Br [Compound 7, 2-(3,5-dibromo-1-hydroxy-4,4-dimethoxycyclohexa-2,5-dien-1-yl)acetonitrile]
CC50 [9]: > 32 µg/mL | Haemolysis (HC10) (human red blood cells): >32 µg/mL | MIC [8, 13]: > 32 µg/mL | % inhibition E. coli [3]: 6.2% | inhibition at 32 µg/mL [3]: 11.2% | MIC [3, 12]: > 32 µg/mL | % inhibition K. pneumoniae [4]: 13.3% | inhibition at 32 µg/mL [4]: 10.6% | MIC ([4]; ATCC 700603): > 32 µg/mL | MIC ([5]; ATCC 19606): > 32 µg/mL | MIC [6]: > 32 µg/mL | MIC [1]: > 32 µg/mL | MIC [2]: > 32 µg/mL

COC(=O)Cc1c(O)cc(Br)c(O)c1Br [Compound 10, subereaphenol B]
CC50 [9]: > 32 µg/mL | Haemolysis (HC10) (human red blood cells): >32 µg/mL | MIC [8, 13]: > 32 µg/mL | % inhibition E. coli [3]: 15.8% and 6.4% | MIC [3, 12]: > 32 µg/mL | % inhibition K. pneumoniae [4]: 9.3% | inhibition at 32 µg/mL [4]: 6.1% | MIC ([4]; ATCC 700603): > 32 µg/mL | % inhibition A. baumannii [5, 14]: −1.4% and −9.2% | MIC ([5]; ATCC 19606): > 32 µg/mL | MIC [6]: > 32 µg/mL | MIC [1]: > 32 µg/mL | % inhibition C. neoformans ([10]; 32 µg/mL): 8.5% | inhibition at 32 µg/mL ([10]; Cryptococcus neoformans, ATCC208821, 32 µg/mL, read-out: % inhibition C. neoformans): 12.4% | MIC [2]: > 32 µg/mL

CC[C@H](C)[C@H](NC(=O)CN)C(=O)NCC(=O)N[C@@H](C)C(=O)N[C@H](C(=O)N[C@@H](CC(C)C)C(=O)N[C@@H](CCCCN)C(=O)N[C@H](C(=O)N[C@@H](CC(C)C)C(=O)N[C@H](C(=O)N[C@H](C(=O)NCC(=O)N[C@@H](CC(C)C)C(=O)N1CCC[C@H]1C(=O)N[C@@H](C)C(=O)N[C@@H](CC(C)C)C(=O)N[C@H](C(=O)N[C@@H](CO)C(=O)N[C@@H](Cc1c[nH]c2ccccc12)C(=O)N[C@H](C(=O)N[C@@H](CCCCN)C(=O)N[C@@H](CCCNC(=N)N)C(=O)N[C@@H](CCCCN)C(=O)N[C@@H](CCCNC(=N)N)C(=O)N[C@@H](CCC(N)=O)C(=O)N[C@@H](CCC(N)=O)C(N)=O)[C@@H](C)CC)[C@@H](C)CC)[C@@H](C)O)[C@@H](C)O)C(C)C)C(C)C [Melittin, reference compound]
Haemolysis (HC10) (human red blood cells): Melittin: 2.7 µg/mL

aplysinamisin-1 [reference compound]
feeding deterrent activity, Blennius sphinx [11]: significant feeding deterrent activity

COC1=C(Br)[C@H](O)[C@@]2(C=C1Br)CC(C(=O)NCCCc1cnc(N)[nH]1)=NO2 [aerophobin-2]
concentration giving significant larval mortality [7]: > 1000 nM

COC(=O)NCCCCNC(=O)C1=NO[C@]2(C=C(Br)C(OC)=C(Br)[C@@H]2O)C1 [Compound 12, subereamolline C]
CC50 [9]: > 32 µg/mL | Haemolysis (HC10) (human red blood cells): >32 µg/mL | % inhibition MRSA [8, 14]: 0.4% and 8.2% | MIC [8, 13]: > 32 µg/mL | % inhibition E. coli [3]: 6.4% | inhibition at 32 µg/mL [3]: 12.3% | MIC [3, 12]: > 32 µg/mL | % inhibition K. pneumoniae [4]: 14.0% and 5.6% | MIC ([4]; ATCC 700603): > 32 µg/mL | MIC ([5]; ATCC 19606): > 32 µg/mL | MIC [6]: > 32 µg/mL | MIC [1]: > 32 µg/mL | MIC [2]: > 32 µg/mL

CC/C(=C(\c1ccccc1)c1ccc(OCCN(C)C)cc1)c1ccccc1 [Tamoxifen, reference compound]
CC50 [9]: 9 µg/mL (≈ 24.2 µM)
